Assay [1] deals with MRSA USA700. Put plainly: MIC against MRSA USA700. It is filed as cell-based, Staphylococcus aureus. The settings on record: for MIC: Staphylococcus aureus, read-out: MIC, Staphylococcus aureus isolate USA700. The protocol:
(§1) 96-well plates were seeded with 5 × 10^5 CFU/mL in a volume of 100 μL of tryptic soy broth (TSB) per well for Staphylococcus aureus assays. Compounds were dissolved in DMSO and serially diluted as 1:2 dilutions to give the final concentration ranging from 0.25 to 128 μg/mL per well. […] Plates were incubated at 37 °C for 18–20 hours and MIC was determined by reading OD625. For M.avium and M.abscessus, 7H9 broth media was used for determination of MICs. The final concentration was 5 × 10^5 CFU/mL in each well. The plate was incubated at 37 °C for 7–8 days and MICs were determined using a Tecan microplate reader (OD625) and resazurin reduction assay.

For assay [2], the system named is MRSA USA200. Put plainly: MIC against MRSA USA200. The assay is classed as cell-based, Staphylococcus aureus. The settings on record: for MIC: Staphylococcus aureus, read-out: MIC, Staphylococcus aureus isolate USA200. The procedure: as §1
Assay [3] relates to MRSA USA300. Put plainly: MIC against MRSA USA300. The assay is classed as cell-based, Staphylococcus aureus. The settings on record: Staphylococcus aureus, read-out: MIC, Staphylococcus aureus isolate USA300. The protocol:
as §1

The test system of assay [4] is Methicillin susceptible Staphylococcus aureus. Put plainly: MIC against MSSA. It is filed as cell-based. Particulars: MSSA. The protocol:
as §1

Assay [5] has as its system Pseudomonas aeruginosa. Put plainly: MIC against Pseudomonas aeruginosa. Particulars: read-out: MIC, PA. The assay is classed as cell-based.
The subject of assay [6] is MRSA USA400. Put plainly: MIC against MRSA USA400. It is filed as cell-based, Staphylococcus aureus. Particulars: Staphylococcus aureus, read-out: MIC, Staphylococcus aureus isolate USA400. The protocol:
as §1

Assay [7] deals with MRSA USA100. Put plainly: MIC against MRSA USA100. The assay is classed as cell-based, Staphylococcus aureus. The settings on record: Staphylococcus aureus, read-out: MIC, Staphylococcus aureus isolate USA100. The protocol: as §1
Assay [8] has as its system Mycobacterium avium. Put plainly: MIC against Mycobacterium avium. It is filed as cell-based. The settings on record: 7H9 broth, 7–8 days. The protocol:
as §1

Assay [9] relates to MRSA USA500. Put plainly: MIC against MRSA USA500. It is filed as cell-based, Staphylococcus aureus. Particulars: Staphylococcus aureus; TSB, 37 °C, 18–20 hours; read-out: MIC, Staphylococcus aureus isolate USA500. The protocol: as §1
In assay [10] the test system is Enterococcus faecalis. Put plainly: MIC against Enterococcus faecalis. It is filed as cell-based. Particulars: read-out: MIC, EF.
Assay [11] relates to MRSA USA800. Put plainly: MIC against MRSA USA800. It is filed as cell-based, Staphylococcus aureus. Particulars: Staphylococcus aureus; TSB, 37 °C, 18–20 hours; read-out: MIC, Staphylococcus aureus isolate USA800. The protocol:
as §1

The test system of assay [12] is Mycobacterium abscessus. Put plainly: MIC against Mycobacterium abscessus. The assay is classed as cell-based. Particulars: Mycobacteroides abscessus, 7H9 broth, 7–8 days. The procedure: as §1
Assay [13] deals with Gram-positive bacteria. Put plainly: MIC against Gram-positive bacteria (summary). It is filed as cell-based. The settings on record: range over all tested Gram-positive bacteria. The protocol:
as §1

In brackets after ≈: the same amount, converted by molar mass. Read-outs that look alike come from different tables or passages of the source.

Take `Brc1ccc(CCNCCCCCCCCOc2ccc3cc(Br)c(OCc4ccccc4)cc3c2)cc1` [6e]: the minimum inhibitory concentration (MIC) (commonly the smallest concentration in the dilution series that meets the test's criterion for growth inhibition) in [1] was 128 µg/mL (≈ 200 µM); in assay [2], 128 µg/mL (≈ 200 µM); in assay [3] it was > 128 µg/mL.
Take `COc1ccc2ccc(OCCCCCCCCN[C@@H]3CCOC3=O)cc2c1` [3h]: the MIC is > 128 µg/mL in assay [4]; > 128 µg/mL in assay [5]; > 128 µg/mL in [1] (TSB, 37 °C, 18–20 hours); > 128 µg/mL in assay [6] (TSB, 37 °C, 18–20 hours).
Take `COc1ccc2ccc(OC/C=C/COCCCN3CCCCC3)cc2c1` [4b]: the minimum inhibitory concentration (MIC) was > 128 µg/mL in assay [5] and 128 µg/mL (≈ 346 µM) in assay [1].
On to `C=CCN(C)CCCOc1ccc2ccc(OCCCN(C)CC=C)cc2c1` [7a], for which, in assay [1] (TSB, 37 °C, 18–20 hours), the “MIC, Staphylococcus aureus isolate USA700” value turned out to be 128 µg/mL (≈ 335 µM). The “MIC, Staphylococcus aureus isolate USA200” value in assay [2] (TSB, 37 °C, 18–20 hours) was >128 µg/mL.
With `Brc1ccc2cc(OCCCCCCCCN3CCCCC3)ccc2c1` [5d], the figures for the MIC in [7], in [1] and in assay [6] were 8 µg/mL (≈ 19.1 µM), 16 µg/mL (≈ 38.2 µM) and 4 µg/mL (≈ 9.56 µM), respectively.
For `COc1ccc2ccc(OCCCCCCCCn3c4ccccc4c4ccccc43)cc2c1` [3f], the minimal inhibitory concentration (MIC) in assay [7] and in [1] was > 128 µg/mL each time.
On to `COc1ccc2ccc(OCCCCCCCCN3C(=O)OC[C@@H]3Cc3ccccc3)cc2c1` [3g], for which the MIC in assay [4] was > 128 µg/mL; in [5], > 128 µg/mL; in assay [1] (TSB, 37 °C, 18–20 hours), > 128 µg/mL; in [6] (TSB, 37 °C, 18–20 hours), > 128 µg/mL.
Turning to `COc1ccc2ccc(OCCCCCCCCN3CCC(F)CC3)cc2c1` [3i], the MIC in assay [1] is > 128 µg/mL.
Consider `COc1ccc2ccc(OCCCCCCCCNCCc3ccc(Cl)cc3)cc2c1` [3b], for which the minimum inhibitory concentration (MIC) is 6 µg/mL (≈ 13.6 µM) in [7] (TSB, 37 °C, 18–20 hours); 4 µg/mL (≈ 9.09 µM) in assay [8]; 8 µg/mL (≈ 18.2 µM) in assay [9]; 4 µg/mL (≈ 9.09 µM) in [4]; > 64 µg/mL in assay [5]; 8 µg/mL (≈ 18.2 µM) in assay [1] (TSB, 37 °C, 18–20 hours). Besides, the MIC is 0.5 µg/mL (≈ 1.14 µM) in assay [10]; 6 µg/mL (≈ 13.6 µM) in [11]; 4 µg/mL (≈ 9.09 µM) in [6] (TSB, 37 °C, 18–20 hours); 12 µg/mL (≈ 27.3 µM) in [12]; 2 µg/mL (≈ 4.55 µM) in assay [2] (TSB, 37 °C, 18–20 hours); 6 µg/mL (≈ 13.6 µM) in assay [3] (TSB, 37 °C, 18–20 hours). Also, the “MIC values against all Gram-positive bacteria (range)” value in assay [13] lay in the range of 0.5 to 16 µg/mL.
On to `COc1ccc2ccc(OC/C=C/COCCCNCCc3ccc(F)cc3)cc2c1` [4c], for which the MIC was 8 µg/mL (≈ 18.9 µM) in assay [7] (TSB, 37 °C, 18–20 hours); 8 µg/mL (≈ 18.9 µM) in assay [8]; 16 µg/mL (≈ 37.8 µM) in [9]; 16 µg/mL (≈ 37.8 µM) in assay [4]; > 64 µg/mL in assay [5]; 16 µg/mL (≈ 37.8 µM) in assay [1] (TSB, 37 °C, 18–20 hours). Also, the minimum inhibitory concentration (MIC) in [11] turned out to be 16 µg/mL (≈ 37.8 µM); in assay [6] (TSB, 37 °C, 18–20 hours), 8 µg/mL (≈ 18.9 µM); in [3] (TSB, 37 °C, 18–20 hours) it was 8 µg/mL (≈ 18.9 µM).
For the molecule `Fc1ccc(N2CCN(CCCOc3ccc4ccc(OCCCN5CCN(c6ccc(F)cc6)CC5)cc4c3)CC2)cc1` [7d, 2,7-bis(3-(4-(4-fluorophenyl)piperazin-1-yl)propoxy)naphthalene], in assay [1], the MIC is > 128 µg/mL.
Consider `COc1ccc2ccc(OCCCCCCCCN3CCN(c4ccc(F)cc4)CC3)cc2c1` [3e], for which the MIC in assay [1] and in assay [10] was > 128 µg/mL each time.

Source of the values: paper PMC5223195, “Novel long-chain compounds with both immunomodulatory and MenA inhibitory activities against Staphylococcus aureus and its biofilm” (Scientific Reports, 2017).
